Data: US11771648B2, “Carrier for oromucosal administration of physiologically active substances” (INSTAR TECHNOLOGIES A.S., priority 2011, dated 2023)

Assay: solubility in water (stated in words, no method described)
Type: physicochemical
Conditions: qualitative statement

Structure (SMILES) | solubility in water
COc1ccc2cc(CCC(C)=O)ccc2c1 [Nabumetone, 4-(6-methoxy-2-nafthyl)-2-butanon] | very well soluble in water
CNS(=O)(=O)Cc1ccc2[nH]cc(CCN(C)C)c2c1 [Sumatriptane, 1-[3-(2-dimethylaminoethyl)-1H-indol-5-yl]-N-methyl-methanesulfonamide] | good solubility in water
